Experimental data: the NIST ThermoML archive (doi:10.1021/je900922x)
Numbers after ± are expanded uncertainties.

Columns and labels:
[1] = Liquid, Pycnometric method
[2] = molar heat capacity at constant pressure; conditions: Liquid, metal-bellows calorimeter

COC [dimethyl ether]
Conditions | mass density, [1] [kg/m3] | molar heat capacity at constant pressure, [2] [J/K/mol]
310 K, 2000 kPa | 643.5 ± 1.8 | 123.92 ± 6
310 K, 3000 kPa | 646 ± 1.8 | 122.08 ± 6
310 K, 4000 kPa | 648 ± 1.8 | 121.62 ± 6
310 K, 5000 kPa | 650.2 ± 1.7 | 121.16 ± 6
320 K, 2000 kPa | 626 ± 1.8 | 127.61 ± 6.4
320 K, 3000 kPa | 628.7 ± 1.8 | 125.77 ± 6.4
320 K, 4000 kPa | 631.1 ± 1.8 | 124.85 ± 6.4
320 K, 5000 kPa | 634.3 ± 1.7 | 124.85 ± 6.4
330 K, 2000 kPa | 606.5 ± 1.9 | 131.3 ± 6.4
330 K, 3000 kPa | 609.8 ± 1.9 | 128.53 ± 6.4
330 K, 4000 kPa | 613.4 ± 1.8 | 128.07 ± 6.4
330 K, 5000 kPa | 616.5 ± 1.8 | 127.15 ± 6.4
340 K, 2000 kPa | 585.3 ± 1.9 | 137.74 ± 6.9
340 K, 3000 kPa | 589.6 ± 1.9 | 134.98 ± 6.9
340 K, 4000 kPa | 593.6 ± 1.9 | 132.22 ± 6.4
340 K, 5000 kPa | 597.4 ± 1.9 | 129.45 ± 6.4
350 K, 3000 kPa | 566.8 ± 2.1 | 140.51 ± 6.9
350 K, 4000 kPa | 572 ± 2 | 137.28 ± 6.9
350 K, 5000 kPa | 576.7 ± 1.9 | 132.68 ± 6.4
360 K, 3000 kPa | 540.2 ± 2.2 | 153.87 ± 7.8
360 K, 4000 kPa | 547.4 ± 2.1 | 145.12 ± 7.4
360 K, 5000 kPa | 553.5 ± 2 | 136.36 ± 6.9
